Drawing on the supplement of paper PMC10307832, this text covers relative viability for one cell line.

What all share (assay): relative viability (nuclei count vs DMSO), 5 days (fraction); higher = more cells survive
Compound in test [1]: C1COCCN1C2=NC(=NC3=C2OC4=C3C=CC=N4)C5=CC(=CC=C5)NC(=O)C6=CN=C(C=C6)N + CC1(C)CCC(c2ccc(Cl)cc2)=C(CN2CCN(c3ccc(C(=O)NS(=O)(=O)c4ccc(N[C@H](CCN5CCOCC5)CSc5ccccc5)c(S(=O)(=O)C(F)(F)F)c4)cc3)CC2)C1 [Navitoclax] (partner 0.5 µM)
Put shortly:
(§1)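 Lung cancer cell lines were seeded in 1536-well plates and dosed by pin tool the next day, with either a single drug or a fixed anchor-drug dose combined with five library-drug doses (not always all listed) spaced in √10 steps. Five days later, one step fixed the cells and stained their nuclei (final 0.05% Triton X-100, 1% formaldehyde, 1 ug/ml Hoechst), and nuclei were counted on 4× images. Relative viability is the nuclei count in treated wells divided by the count in vehicle wells, and each value is the median of duplicate plates.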

Compound in test [2]: C1COCCN1C2=NC(=NC3=C2OC4=C3C=CC=N4)C5=CC(=CC=C5)NC(=O)C6=CN=C(C=C6)N + C[C@@H](Oc1cc(-c2cnn(C3CCNCC3)c2)cnc1N)c1c(Cl)ccc(F)c1Cl [Crizotinib] (partner 1 µM)
In short, it runs like this:
as §1

Compound in the test “SGI-1776 + Lapatinib”: CN1CCC(CNc2ccc3ncc(-c4cccc(OC(F)(F)F)c4)n3n2)CC1 [SGI-1776] + CS(=O)(=O)CCNCc1ccc(-c2ccc3ncnc(Nc4ccc(OCc5cccc(F)c5)c(Cl)c4)c3c2)o1 [Lapatinib] (partner 2 µM)
Put shortly:
as §1

Compound in the test “SGI-1776 + Alpelisib”: CN1CCC(CNc2ccc3ncc(-c4cccc(OC(F)(F)F)c4)n3n2)CC1 [SGI-1776] + Cc1nc(NC(=O)N2CCC[C@H]2C(N)=O)sc1-c1ccnc(C(C)(C)C(F)(F)F)c1 [Alpelisib] (partner 2 µM)
In short, it runs like this:
as §1

Consider UMC-11, for which the relative viability was determined as 0.278 in test [1] (first compound 0.02 µM); 0.292 in test [1] (first compound 0.06325 µM); 0.266 in test [1] (first compound 0.2 µM); 0.284 in test [1] (first compound 0.6325 µM); 0.246 in test [1] (first compound 2 µM); 0.564 in test [2] (first compound 0.02 µM). Also, the relative viability in test [2] (first compound 0.06325 µM) was determined as 0.59; in test [2] (first compound 0.2 µM), 0.677; in test [2] (first compound 0.6325 µM), 0.672; in test [2] (first compound 2 µM), 0.498; in the test with SGI-1776 + Lapatinib (first compound 0.08 µM), 0.907; with SGI-1776 + Lapatinib (first compound 0.8 µM), 1.12. Also, the relative viability with SGI-1776 + Lapatinib (first compound 2.53 µM) was found to be 1.11; with SGI-1776 + Lapatinib (first compound 8 µM) it was 0.644; with SGI-1776 + Alpelisib (first compound 0.08 µM), 0.888; in the test with SGI-1776 + Alpelisib (first compound 0.8 µM), 1; with SGI-1776 + Alpelisib (first compound 2.53 µM), 0.828; with SGI-1776 + Alpelisib (first compound 8 µM) it was 0.671.
